Source: the NIST ThermoML archive (doi:10.1016/j.tca.2016.06.022)
± gives the expanded uncertainty stated by the source.

Legend:
[1] = 101 kPa, Liquid, Vibrating tube method
[2] = xn = mol fraction of the nth substance listed; settings: 101 kPa, Liquid, Vibrating tube method, x2 = 0

NCCN [ethane-1,2-diamine]
[1]
Settings	mass density [kg/m3]
288.15 K	901.26 ± 0.51
298.15 K	891.9 ± 0.51
308.15 K	882.49 ± 0.51
323.15 K	868.23 ± 0.51
333.15 K	858.6 ± 0.52

O [water] + NCCN
[2]
Settings	mass density [kg/m3]
274.15 K	999.899 ± 0.5
275.15 K	999.94 ± 0.5
276.15 K	999.964 ± 0.5
277.15 K	999.972 ± 0.51
278.15 K	999.964 ± 0.5
279.15 K	999.94 ± 0.5
280.15 K	999.901 ± 0.5
281.15 K	999.848 ± 0.5
282.15 K	999.781 ± 0.5
283.15 K	999.699 ± 0.5
323.15 K	988.03 ± 0.5
333.15 K	983.191 ± 0.5

O [water]
[1]
Settings	mass density [kg/m3]
274.15 K	999.899 ± 0.5
275.15 K	999.94 ± 0.5
276.15 K	999.964 ± 0.5
277.15 K	999.972 ± 0.51
278.15 K	999.964 ± 0.5
279.15 K	999.94 ± 0.5
280.15 K	999.901 ± 0.5
281.15 K	999.848 ± 0.5
282.15 K	999.781 ± 0.5
283.15 K	999.699 ± 0.5
323.15 K	988.03 ± 0.5
333.15 K	983.191 ± 0.5
